# Test results taken from PubChem BioAssay (NCI).
#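 Tested at 5 concentrations; 48 h exposure; 96-well plates; endpoints linearly interpolated, else capped at highest concentration. Abbreviation: GI50, concentration required for 50% inhibition of growth. Definition used: TGI = concentration required for complete inhibition of growth.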
# What was measured:
# Assay in all cases: NCI anticancer screen, dose series, 48 h
# 786-0 renal = system: 786-0 renal
# A498 renal = system: A498 renal
# A549 NSCLC = system: A549 NSCLC
# ACHN renal = system: ACHN renal
# BT-549 breast = system: BT-549 breast
# CAKI-1 renal = system: CAKI-1 renal
# CCRF-CEM leukemia = system: CCRF-CEM leukemia
# COLO 205 colon = system: COLO 205 colon
# DU-145 prostate = system: DU-145 prostate
# EKVX NSCLC = system: EKVX NSCLC
# HCC-2998 colon = system: HCC-2998 colon
# HCT-116 colon = system: HCT-116 colon
# HCT-15 colon = system: HCT-15 colon
# HL-60(TB) leukemia = system: HL-60(TB) leukemia
# HOP-62 NSCLC = system: HOP-62 NSCLC
# HS 578T breast = system: HS 578T breast
# HT29 colon = system: HT29 colon
# IGROV1 ovarian = system: IGROV1 ovarian
# K-562 leukemia = system: K-562 leukemia
# KM12 colon = system: KM12 colon
# LOX IMVI melanoma = system: LOX IMVI melanoma
# M14 melanoma = system: M14 melanoma
# MCF7 breast = system: MCF7 breast
# MDA-MB-231 breast = system: MDA-MB-231 breast
# MDA-MB-435 = system: MDA-MB-435
# MOLT-4 leukemia = system: MOLT-4 leukemia
# NCI-H226 lung = system: NCI-H226 lung
# NCI-H23 lung = system: NCI-H23 lung
# NCI-H460 lung = system: NCI-H460 lung
# NCI-H522 lung = system: NCI-H522 lung
# NCI/ADR-RES ovarian = system: NCI/ADR-RES ovarian
# OVCAR-3 ovarian = system: OVCAR-3 ovarian
# OVCAR-4 ovarian = system: OVCAR-4 ovarian
# OVCAR-5 ovarian = system: OVCAR-5 ovarian
# OVCAR-8 ovarian = system: OVCAR-8 ovarian
# PC-3 prostate = system: PC-3 prostate
# RPMI-8226 leukemia = system: RPMI-8226 leukemia
# RXF 393 renal = system: RXF 393 renal
# SF-268 CNS = system: SF-268 CNS
# SF-295 CNS = system: SF-295 CNS
# SF-539 CNS = system: SF-539 CNS
# SK-MEL-2 melanoma = system: SK-MEL-2 melanoma
# SK-MEL-28 melanoma = system: SK-MEL-28 melanoma
# SK-MEL-5 melanoma = system: SK-MEL-5 melanoma
# SK-OV-3 ovarian = system: SK-OV-3 ovarian
# SN12C renal = system: SN12C renal
# SNB-19 CNS = system: SNB-19 CNS
# SNB-75 CNS = system: SNB-75 CNS
# SR leukemia = system: SR leukemia
# SW-620 colon = system: SW-620 colon
# T-47D breast = system: T-47D breast
# TK-10 renal = system: TK-10 renal
# U251 CNS = system: U251 CNS
# UACC-257 melanoma = system: UACC-257 melanoma
# UACC-62 melanoma = system: UACC-62 melanoma
# UO-31 renal = system: UO-31 renal
smiles,measurement,setting,value
CC(C)(O)/C=C/C(=O)[C@](C)(O)[C@H]1[C@H](O)C[C@@]2(C)[C@H]3CC=C4[C@@H](C[C@H](O)C(=O)C4(C)C)[C@]3(C)C(=O)C[C@]12C,GI50,786-0 renal,51.1 nM
same,TGI,786-0 renal,249 nM
same,GI50,A498 renal,17.7 nM
same,TGI,A498 renal,47.3 nM
same,GI50,A549 NSCLC,51.1 nM
same,TGI,A549 NSCLC,> 16700 nM
same,GI50,ACHN renal,53.7 nM
same,TGI,ACHN renal,> 16700 nM
same,GI50,BT-549 breast,16.1 nM
same,TGI,BT-549 breast,54.6 nM
same,GI50,CAKI-1 renal,13.7 nM
same,TGI,CAKI-1 renal,49.9 nM
same,GI50,CCRF-CEM leukemia,20.8 nM
same,TGI,CCRF-CEM leukemia,> 8450 nM
same,GI50,COLO 205 colon,27.7 nM
same,TGI,COLO 205 colon,> 16700 nM
same,GI50,DU-145 prostate,36.7 nM
same,TGI,DU-145 prostate,4300 nM
same,GI50,EKVX NSCLC,45.8 nM
same,TGI,EKVX NSCLC,> 16700 nM
same,GI50,HCC-2998 colon,118 nM
same,TGI,HCC-2998 colon,> 16700 nM
same,GI50,HCT-116 colon,24.3 nM
same,TGI,HCT-116 colon,7140 nM
same,GI50,HCT-15 colon,34.4 nM
same,TGI,HCT-15 colon,> 16700 nM
same,GI50,HL-60(TB) leukemia,203 nM
same,TGI,HL-60(TB) leukemia,1460 nM
same,GI50,HOP-62 NSCLC,81.8 nM
same,TGI,HOP-62 NSCLC,419 nM
same,GI50,HS 578T breast,52.9 nM
same,TGI,HS 578T breast,2730 nM
same,GI50,HT29 colon,25.8 nM
same,TGI,HT29 colon,> 16700 nM
same,GI50,IGROV1 ovarian,70.7 nM
same,TGI,IGROV1 ovarian,460 nM
same,GI50,K-562 leukemia,39.4 nM
same,TGI,K-562 leukemia,> 16700 nM
same,GI50,KM12 colon,113 nM
same,TGI,KM12 colon,> 16700 nM
same,GI50,LOX IMVI melanoma,180 nM
same,TGI,LOX IMVI melanoma,> 3520 nM
same,GI50,M14 melanoma,17.6 nM
same,TGI,M14 melanoma,1710 nM
same,GI50,MCF7 breast,31.5 nM
same,TGI,MCF7 breast,> 16700 nM
same,GI50,MDA-MB-231 breast,28.1 nM
same,TGI,MDA-MB-231 breast,307 nM
same,GI50,MDA-MB-435,22 nM
same,TGI,MDA-MB-435,5770 nM
same,GI50,MOLT-4 leukemia,1170 nM
same,TGI,MOLT-4 leukemia,16300 nM
same,GI50,NCI-H226 lung,29.6 nM
same,TGI,NCI-H226 lung,4660 nM
same,GI50,NCI-H23 lung,450 nM
same,TGI,NCI-H23 lung,> 16700 nM
same,GI50,NCI-H460 lung,24.7 nM
same,TGI,NCI-H460 lung,> 16700 nM
same,GI50,NCI-H522 lung,28.7 nM
same,TGI,NCI-H522 lung,184 nM
same,GI50,NCI/ADR-RES ovarian,71.4 nM
same,GI50,OVCAR-3 ovarian,39.5 nM
same,TGI,OVCAR-3 ovarian,1020 nM
same,GI50,OVCAR-4 ovarian,5.58 nM
same,TGI,OVCAR-4 ovarian,45.1 nM
same,GI50,OVCAR-5 ovarian,42.9 nM
same,TGI,OVCAR-5 ovarian,> 16700 nM
same,GI50,OVCAR-8 ovarian,496 nM
same,TGI,OVCAR-8 ovarian,> 16700 nM
same,GI50,PC-3 prostate,283 nM
same,TGI,PC-3 prostate,> 16700 nM
same,GI50,RPMI-8226 leukemia,41.9 nM
same,TGI,RPMI-8226 leukemia,> 6220 nM
same,GI50,RXF 393 renal,14.3 nM
same,TGI,RXF 393 renal,31.8 nM
same,GI50,SF-268 CNS,19.6 nM
same,TGI,SF-268 CNS,88.2 nM
same,GI50,SF-295 CNS,102 nM
same,TGI,SF-295 CNS,872 nM
same,GI50,SF-539 CNS,16.7 nM
same,TGI,SF-539 CNS,130 nM
same,GI50,SK-MEL-2 melanoma,16.2 nM
same,TGI,SK-MEL-2 melanoma,52.5 nM
same,GI50,SK-MEL-28 melanoma,13.9 nM
same,TGI,SK-MEL-28 melanoma,39.3 nM
same,GI50,SK-MEL-5 melanoma,58 nM
same,TGI,SK-MEL-5 melanoma,2310 nM
same,GI50,SK-OV-3 ovarian,56 nM
same,TGI,SK-OV-3 ovarian,236 nM
same,GI50,SN12C renal,46.6 nM
same,TGI,SN12C renal,> 12900 nM
same,GI50,SNB-19 CNS,75.2 nM
same,TGI,SNB-19 CNS,3250 nM
same,GI50,SNB-75 CNS,28.9 nM
same,TGI,SNB-75 CNS,108 nM
same,GI50,SR leukemia,41.4 nM
same,TGI,SR leukemia,> 16700 nM
same,GI50,SW-620 colon,28.1 nM
same,TGI,SW-620 colon,> 16700 nM
same,GI50,T-47D breast,217 nM
same,TGI,T-47D breast,> 14000 nM
same,GI50,TK-10 renal,30.7 nM
same,TGI,TK-10 renal,89.5 nM
same,GI50,U251 CNS,54.1 nM
same,TGI,U251 CNS,262 nM
same,GI50,UACC-257 melanoma,42 nM
same,TGI,UACC-257 melanoma,541 nM
same,GI50,UACC-62 melanoma,26.3 nM
same,TGI,UACC-62 melanoma,3720 nM
same,GI50,UO-31 renal,43.2 nM
same,TGI,UO-31 renal,312 nM
